In publication PMC4798002 (Bioorganic & medicinal chemistry letters, 2014):
≈ marks a conversion by molar mass, not a printed value. Read-outs that look alike come from different tables or passages of the source.

Experiments:
[1] = molecular target: T1, ANT(2″)-Ia (Klebsiella pneumoniae, UniProt P0AE05); test: ANT; type: biochemical; conditions: for fold increase in activity over the other synthetic α-hydroxytropolones: relative to other synthetic α-hydroxytropolones; for fold less potent than β-thujaplicinol: relative to β-thujaplicinol
[2] = system: hyper-permeable, ANT(2″)-Ia-expressing strain of E. coli BW25113; test: Checkerboard analysis with gentamicin against ANT; type: cell-based; conditions: for synergy with gentamicin (in words): ANT(2″)-Ia-expressing E. coli
[3] = molecular target: T1, ANT(2″)-Ia; conditions: cited from earlier work
[4] = system: E. coli BW25113 wild type; test: Gentamicin MIC against wild type E. coli; type: cell-based; conditions: Escherichia coli, BW25113, read-out: gentamicin MIC
[5] = system: isogenic E. coli mutant with the gene encoding aminoglycoside phosphotransferase (APH[2″]-Id); test: Checkerboard analysis with gentamicin against APH; type: cell-based; conditions: ANT(2″)-Ia-negative, APH(2″)-Id-positive bacteria
[6] = purified enzyme, 96 well format

T1 sequence (P0AE05 whole entry): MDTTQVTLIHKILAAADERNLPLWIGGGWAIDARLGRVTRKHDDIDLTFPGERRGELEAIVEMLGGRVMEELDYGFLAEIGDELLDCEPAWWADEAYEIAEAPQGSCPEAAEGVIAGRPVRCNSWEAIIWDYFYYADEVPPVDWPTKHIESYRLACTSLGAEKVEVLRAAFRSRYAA

Row | Structure (SMILES) | ANT(2″)-Ia inhibitory activity (in words) [1, 6] | synergy with gentamicin (in words) [2] | other results
1 | Cc1cc(O)c(=O)c(O)cc1-c1ccc(C(F)(F)F)cc1 [3n] | no activity at all | Synergy | –
2 | Cc1cc(O)c(=O)c(O)cc1C(=O)C(C)C [3o] | appreciable inhibitory activity, which was comparable to 3e | – | –
3 | O=c1c(O)ccccc1O [α-hydroxytropolone] | – | – | ANT(2″)-Ia inhibition (in words) [3]: capable of inhibiting
4 | Cc1cc(O)c(=O)c(O)cc1-c1ccc(Br)cc1 [3l] | – | no synergistic activity | fold increase in activity over the other synthetic α-hydroxytropolones [1]: ~4 fold
5 | COc1cc(C)c(-c2ccc([N+](=O)[O-])cc2)cc(O)c1=O [4g] | – | – | ANT(2″)-Ia inhibitory activity (in words) [1]: inactive
6 | Cc1cc(O)c(=O)c(O)cc1C(=O)C1CCCCC1 [3p] | inactivity | – | –
7 | Cc1cc(O)c(=O)c(O)cc1-c1ccc(Cl)cc1 [3m] | – | no synergistic activity | fold increase in activity over the other synthetic α-hydroxytropolones [1]: ~4 fold
8 | Cc1cc(O)c(=O)c(O)cc1-c1ccccc1 [3i] | comparable potency to nitroaryl-containing 3g | – | –
9 | CC(=O)c1cc(O)c(=O)c(O)cc1C [3e] | significant inhibitory potency | Synergy | fold less potent than β-thujaplicinol [1]: 5–10 fold; gentamicin concentration at which no growth is seen ([2]; 50 μM of compound, lowest concentration of gentamicin tested): ≤ 2 µg/mL
10 | Cc1cc(O)c(=O)c(O)cc1-c1ccc2ccccc2c1 [3k] | no activity at all | – | –
11 | COc1cc(C)c(C(C)=O)cc(O)c1=O [4e] | – | – | ANT(2″)-Ia inhibitory activity (in words) [1]: inactive
12 | O=c1cccccc1O [Tropolone] | – | – | ANT(2″)-Ia inhibition (in words) [3]: no activity
13 | Cc1cc(O)c(=O)c(O)cc1C(=O)CC1CCCCC1 [3q] | inactivity | – | –
14 | Cc1cc(O)c(=O)c(O)cc1-c1ccc([N+](=O)[O-])cc1 [3g] | significant inhibitory potency | no synergistic activity | fold less potent than β-thujaplicinol [1]: 5–10 fold
15 | CNC(C)C1CCC(N)C(OC2C(N)CC(N)C(OC3OCC(C)(O)C(NC)C3O)C2O)O1 (centres unmarked) [gentamicin, reference compound] | – | – | MIC ([2]; Escherichia coli, BW25113, read-out: gentamicin MIC): 64 µg/mL; MIC [4]: 0.25 µg/mL (≈ 0.523 µM)
16 | Cc1cc(O)c(=O)c(O)cc1-c1ccc(-c2ccccc2)cc1 [3h] | – | no synergistic activity | –
17 | Cc1cc(O)c(=O)c(O)cc1-c1cccc2ccccc12 [3j] | no activity at all | – | –
18 | CC(C)c1ccc(O)c(=O)c(O)c1 [β-thujaplicinol] | – | – | antibacterial effect of compound (in words) ([2]; 50 μM of compound): all of the bacterial cells have died; synergy with gentamicin (in words) [5]: no synergy; ANT(2″)-Ia inhibition (in words) [3]: capable of inhibiting
